According to patent publication US11236129B2, “IL-17A binding peptides and medical uses thereof” (Dompe' Farmaceutici S.P.A., priority 2018, dated 2022):
Residues, ends and D or L forms follow the SMILES beside them.

target: IL-17RA/IL17RC dimerization induced by IL-17A (Homo sapiens, UniProt Q16552); experiment: IL-17RA/IL17RC dimerization assay in response to IL-17A (PathHunter Cytokine Receptor Assay); assay type: cell-based; conditions: IL-17A at EC80; read-out: IC50 in IL-17RA/IL7RC dimerization assay
How it was run: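 Receptor dimerization was read as chemiluminescence from complemented β-galactosidase after IL-17A at EC80 concentration for 6–16 h at 37 °C. Peptides were added 60 min before agonist, at 37 °C or room temperature, with 1% vehicle. Percent inhibition used the EC80-stimulated and vehicle wells as references.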

IL-17RA/IL17RC dimerization induced by IL-17A, sequence (Q16552 24-155): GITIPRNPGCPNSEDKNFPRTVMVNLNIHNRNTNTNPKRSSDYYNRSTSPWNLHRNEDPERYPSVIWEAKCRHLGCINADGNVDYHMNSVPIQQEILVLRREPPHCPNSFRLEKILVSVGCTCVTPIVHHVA

Row | IC50 [µM] | SMILES
1 | < 10 | CC[C@H](C)[C@H](NC(C)=O)C(=O)N[C@@H](Cc1c[nH]cn1)C(=O)N[C@H](C(=O)N[C@H](C(=O)N[C@H](C(=O)N1CCC[C@H]1C(=O)N[C@@H](C)C(=O)N[C@@H](CC(=O)O)C(=O)N[C@@H](CC(C)C)C(=O)N[C@@H](Cc1c[nH]c2ccccc12)C(=O)N[C@@H](CC(=O)O)C(=O)N[C@@H](Cc1c[nH]c2ccccc12)C(=O)N[C@@H](Cc1ccc(O)cc1)C(=O)N[C@@H](CC(N)=O)C(=O)N[C@@H](CCCCN)C(N)=O)[C@@H](C)CC)[C@@H](C)O)C(C)C [SEQ ID NO: 219] (Ac-IHVTIPADLWDWYNK-NH2)
2 | < 10 | CC[C@H](C)[C@H](NC(C)=O)C(=O)N[C@@H](Cc1c[nH]cn1)C(=O)N[C@@H](Cc1ccccc1)C(=O)N[C@H](C(=O)N[C@H](C(=O)N1CCC[C@H]1C(=O)N[C@@H](C)C(=O)N[C@@H](CC(=O)O)C(=O)N[C@@H](CC(C)C)C(=O)N[C@@H](Cc1c[nH]c2ccccc12)C(=O)N[C@@H](CC(=O)O)C(=O)N[C@@H](Cc1c[nH]c2ccccc12)C(=O)N[C@H](C(=O)N[C@@H](CC(N)=O)C(=O)N[C@@H](CCCCN)C(N)=O)[C@@H](C)CC)[C@@H](C)CC)[C@@H](C)O [SEQ ID NO: 174] (Ac-IHFTIPADLWDWINK-NH2)
3 | < 10 | CC[C@H](C)[C@H](NC(C)=O)C(=O)N[C@@H](Cc1c[nH]cn1)C(=O)N[C@H](C(=O)N[C@H](C(=O)N[C@H](C(=O)N1CCC[C@H]1C(=O)N[C@@H](CC(C)C)C(=O)N[C@@H](CCC(=O)O)C(=O)N[C@H](C(=O)N[C@@H](Cc1ccccc1)C(=O)N[C@@H](CCC(=O)O)C(=O)N[C@@H](Cc1c[nH]c2ccccc12)C(=O)N[C@@H](CC(C)C)C(=O)N[C@@H](CCC(N)=O)C(=O)N[C@@H](Cc1c[nH]cn1)C(N)=O)C(C)C)[C@@H](C)CC)[C@@H](C)O)C(C)C [SEQ ID NO: 249] (Ac-IHVTIPLEVFEWLQH-NH2)
4 | < 10 | CC[C@H](C)[C@H](NC(=O)[C@H](Cc1c[nH]c2ccccc12)NC(=O)[C@H](CC(=O)O)NC(=O)[C@H](Cc1c[nH]c2ccccc12)NC(=O)[C@H](CC(C)C)NC(=O)[C@H](CC(=O)O)NC(=O)[C@H](C)NC(=O)[C@@H]1CCCN1C(=O)[C@@H](NC(=O)[C@H](Cc1ccc(O)cc1)NC(=O)[C@H](CC(C)C)NC(=O)[C@H](CCCNC(=N)N)NC(=O)[C@@H](NC(C)=O)C(C)C)C(C)C)C(=O)N[C@@H](CC(N)=O)C(=O)N[C@@H](CCCCN)C(N)=O [SEQ ID NO: 244] (Ac-VRLYVPADLWDWINK-NH2)
5 | < 0.5 | CC[C@H](C)[C@H](NC(=O)[C@H](CCC(N)=O)NC(=O)[C@@H](NC(=O)[C@H](Cc1c[nH]cn1)NC(=O)[C@@H](NC(C)=O)C(C)C)C(C)C)C(=O)N1CCC[C@H]1C(=O)N[C@@H](C)C(=O)N[C@@H](CC(=O)O)C(=O)N[C@@H](Cc1ccccc1)C(=O)N[C@@H](Cc1c[nH]c2ccccc12)C(=O)N[C@@H](CCC(=O)O)C(=O)N[C@@H](Cc1c[nH]c2ccccc12)C(=O)N[C@@H](Cc1ccccc1)C(=O)N[C@@H](CCCNC(=N)N)C(=O)N[C@@H](CCCNC(=N)N)C(N)=O [SEQ ID NO: 143] (Ac-VHVQIPADFWEWFRR-NH2)
6 | < 10 | CC[C@H](C)[C@H](NC(=O)[C@H](Cc1c[nH]c2ccccc12)NC(=O)[C@H](CC(=O)O)NC(=O)[C@H](Cc1c[nH]c2ccccc12)NC(=O)[C@H](CC(C)C)NC(=O)[C@H](CC(=O)O)NC(=O)[C@H](C)NC(=O)[C@@H]1CCCN1C(=O)[C@@H](NC(=O)[C@H](CO)NC(=O)[C@@H](NC(=O)[C@H](CCCNC(=N)N)NC(=O)[C@H](CC(C)C)NC(C)=O)[C@@H](C)CC)C(C)C)C(=O)N[C@@H](CC(N)=O)C(=O)N[C@@H](CCCCN)C(N)=O [SEQ ID NO: 240] (Ac-LRISVPADLWDWINK-NH2)
7 | < 10 | CC[C@H](C)[C@H](NC(=O)[C@H](CCC(=O)O)NC(=O)[C@H](CC(C)C)NC(=O)[C@@H]1CCCN1C(=O)[C@@H](NC(=O)[C@H](CO)NC(=O)[C@@H](NC(=O)[C@H](CCCNC(=N)N)NC(=O)[C@H](CC(C)C)NC(C)=O)[C@@H](C)CC)C(C)C)C(=O)N[C@@H](Cc1ccccc1)C(=O)N[C@@H](CCC(=O)O)C(=O)N[C@@H](Cc1c[nH]c2ccccc12)C(=O)N[C@@H](CC(C)C)C(=O)N[C@@H](CCC(N)=O)C(=O)N[C@@H](Cc1c[nH]cn1)C(N)=O [SEQ ID NO: 252] (Ac-LRISVPLEIFEWLQH-NH2)
8 | < 10 | CC[C@H](C)[C@H](NC(=O)[C@H](Cc1c[nH]c2ccccc12)NC(=O)[C@H](CC(=O)O)NC(=O)[C@H](Cc1c[nH]c2ccccc12)NC(=O)[C@H](CC(C)C)NC(=O)[C@H](CC(=O)O)NC(=O)[C@H](C)NC(=O)[C@@H]1CCCN1C(=O)[C@@H](NC(=O)[C@H](Cc1ccc(O)cc1)NC(=O)[C@H](C)NC(=O)[C@H](CCCNC(=N)N)NC(=O)[C@@H](NC(C)=O)C(C)C)C(C)C)C(=O)N[C@@H](CC(N)=O)C(=O)N[C@@H](CCCCN)C(N)=O [SEQ ID NO: 243] (Ac-VRAYVPADLWDWINK-NH2)
9 | < 10 | CC[C@H](C)[C@H](NC(C)=O)C(=O)N[C@@H](Cc1c[nH]cn1)C(=O)N[C@H](C(=O)N[C@@H](Cc1ccc(O)cc1)C(=O)N[C@H](C(=O)N1CCC[C@H]1C(=O)N[C@@H](C)C(=O)N[C@@H](CC(=O)O)C(=O)N[C@@H](CC(C)C)C(=O)N[C@@H](Cc1c[nH]c2ccccc12)C(=O)N[C@@H](CC(=O)O)C(=O)N[C@@H](Cc1c[nH]c2ccccc12)C(=O)N[C@H](C(=O)N[C@@H](CC(N)=O)C(=O)N[C@@H](CCCCN)C(N)=O)[C@@H](C)CC)[C@@H](C)CC)C(C)C [SEQ ID NO: 176] (Ac-IHVYIPADLWDWINK-NH2)
10 | < 0.5 | CC(=O)N[C@H](C(=O)N[C@@H](Cc1c[nH]cn1)C(=O)N[C@H](C(=O)N[C@H](C(=O)N[C@@H](Cc1ccccc1)C(=O)N1CCC[C@H]1C(=O)N[C@@H](C)C(=O)N[C@@H](CC(=O)O)C(=O)N[C@@H](CC(C)C)C(=O)N[C@@H](Cc1c[nH]c2ccccc12)C(=O)N[C@@H](CCC(=O)O)C(=O)N[C@@H](Cc1c[nH]c2ccccc12)C(=O)N[C@@H](Cc1ccccc1)C(=O)N[C@@H](CCCNC(=N)N)C(=O)N[C@@H](CCCNC(=N)N)C(N)=O)[C@@H](C)O)C(C)C)C(C)C [SEQ ID NO: 144] (Ac-VHVTFPADLWEWFRR-NH2)
11 | < 10 | CC[C@H](C)[C@H](NC(=O)[C@H](CCC(=O)O)NC(=O)[C@H](CCC(N)=O)NC(=O)[C@@H]1CCCN1C(=O)[C@@H](NC(=O)[C@H](CO)NC(=O)[C@H](Cc1ccccc1)NC(=O)[C@H](CCCNC(=N)N)NC(=O)[C@@H](NC(C)=O)C(C)C)C(C)C)C(=O)N[C@@H](Cc1ccc(O)cc1)C(=O)N[C@@H](CCC(=O)O)C(=O)N[C@@H](Cc1c[nH]c2ccccc12)C(=O)N[C@H](C(=O)N[C@@H](CCCNC(=N)N)C(=O)N[C@@H](CCCNC(=N)N)C(N)=O)C(C)C [SEQ ID NO: 251] (Ac-VRFSVPQEIYEWVRR-NH2)
12 | < 10 | CC[C@H](C)[C@H](NC(C)=O)C(=O)N[C@@H](Cc1c[nH]cn1)C(=O)N[C@H](C(=O)N[C@H](C(=O)N[C@H](C(=O)N1CCC[C@H]1C(=O)N[C@@H](CC(C)C)C(=O)N[C@@H](CCC(=O)O)C(=O)N[C@H](C(=O)N[C@@H](Cc1ccccc1)C(=O)N[C@@H](CCC(=O)O)C(=O)N[C@@H](Cc1c[nH]c2ccccc12)C(=O)N[C@@H](CC(C)C)C(=O)N[C@@H](CCC(N)=O)C(=O)N[C@@H](Cc1c[nH]cn1)C(N)=O)[C@@H](C)CC)[C@@H](C)CC)[C@@H](C)O)C(C)C [SEQ ID NO: 246] (Ac-IHVTIPLEIFEWLQH-NH2)
13 | < 0.5 | CC(=O)N[C@H](C(=O)N[C@@H](Cc1c[nH]cn1)C(=O)N[C@@H](Cc1ccccc1)C(=O)N[C@H](C(=O)N[C@@H](Cc1ccccc1)C(=O)N1CCC[C@H]1C(=O)N[C@@H](CCC(N)=O)C(=O)N[C@@H](CC(=O)O)C(=O)N[C@@H](CC(C)C)C(=O)N[C@@H](Cc1ccc(O)cc1)C(=O)N[C@@H](CC(N)=O)C(=O)N[C@@H](Cc1ccccc1)C(=O)N[C@H](C(=O)N[C@@H](CCCNC(=N)N)C(=O)N[C@@H](CCCNC(=N)N)C(N)=O)C(C)C)[C@@H](C)O)C(C)C [SEQ ID NO: 148] (Ac-VHFTFPQDLYNFVRR-NH2)
14 | < 10 | CC[C@H](C)[C@H](NC(C)=O)C(=O)N[C@@H](Cc1c[nH]cn1)C(=O)N[C@H](C(=O)N[C@H](C(=O)N[C@H](C(=O)N1CCC[C@H]1C(=O)N[C@@H](C)C(=O)N[C@@H](CC(=O)O)C(=O)N[C@@H](C)C(=O)N[C@@H](Cc1c[nH]c2ccccc12)C(=O)N[C@@H](CC(=O)O)C(=O)N[C@@H](Cc1c[nH]c2ccccc12)C(=O)N[C@H](C(=O)N[C@@H](CC(N)=O)C(=O)N[C@@H](CCCCN)C(N)=O)[C@@H](C)CC)[C@@H](C)CC)[C@@H](C)O)C(C)C [SEQ ID NO: 201] (Ac-IHVTIPADAWDWINK-NH2)
